Entries after “also recorded” stand apart in the source; their conditions may differ.
Key:
[1] = target: T1, human TRPV2 (Homo sapiens, UniProt Q9Y5S1); assay: Ca2+ signal in N2a cells transfected with human TRPV2; format: cell-based; conditions: stimulation with hypotonicity (260 mosmol/L)
T1 construct: expressed in transfected cells; host or cells: N2a cells
T1 sequence (Q9Y5S1 1-764): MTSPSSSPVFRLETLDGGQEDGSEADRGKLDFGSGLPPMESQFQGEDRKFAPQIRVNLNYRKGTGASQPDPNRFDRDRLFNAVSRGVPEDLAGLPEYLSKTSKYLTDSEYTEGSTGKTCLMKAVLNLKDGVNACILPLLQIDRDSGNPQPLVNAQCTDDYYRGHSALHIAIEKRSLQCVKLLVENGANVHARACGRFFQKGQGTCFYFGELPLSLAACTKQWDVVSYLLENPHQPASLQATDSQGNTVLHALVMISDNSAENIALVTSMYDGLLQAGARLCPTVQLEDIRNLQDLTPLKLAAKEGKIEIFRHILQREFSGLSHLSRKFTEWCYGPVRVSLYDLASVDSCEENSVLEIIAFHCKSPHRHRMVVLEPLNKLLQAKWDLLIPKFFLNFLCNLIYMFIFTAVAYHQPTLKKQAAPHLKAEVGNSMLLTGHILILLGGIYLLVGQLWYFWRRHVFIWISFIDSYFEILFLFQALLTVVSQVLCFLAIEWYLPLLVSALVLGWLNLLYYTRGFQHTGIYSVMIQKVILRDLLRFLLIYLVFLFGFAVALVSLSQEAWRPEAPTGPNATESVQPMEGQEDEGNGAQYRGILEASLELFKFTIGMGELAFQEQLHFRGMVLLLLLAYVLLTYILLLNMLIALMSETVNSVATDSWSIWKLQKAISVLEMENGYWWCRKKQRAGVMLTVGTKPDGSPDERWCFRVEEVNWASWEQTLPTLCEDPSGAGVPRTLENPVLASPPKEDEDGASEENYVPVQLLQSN
Procedure: Compounds were tested for their effect on TRPV1, TRPV2, and TRPV3. Methods were similar to those described in Example 15. Briefly, N2a cells were transfected with human TRPV1, TRPV2, or TRPV3. eGFP-transfection was used as control. For specific stimulation of TRPV1, 5 μM capsaicin was used. For stimulation of TRPV2, hypotonicity (260 mosmol/L) was used, based on previous reports of TRPV2 being osmotically responsive. N2a cells were not responsive to hypotonicity, and neither were control-transfected cells. For TRPV3-expressing cells, camphor (20% of a commercially available stock solution) was used. […] Stimulation and control protocols were applied as for TRPA1-expressing N2a cells as detailed above in Example 15.

[2] = UVB permeation of paw-pad skin (sunscreen test); design: species or system mouse; conditions: topically applied; GSK205 5 mM
Procedure: The UV LED was powered with 20 mA of current, resulting in 500 μW of optical power in a circular focal spot 1.5 mm in diameter, with 70% of the total flux in a 0.5 mm beam radius. The UV optical power transmitted through the sample was detected by a Hamamatsu 5127-66BR UV detector, and the output of the photodetector was measured using a Keithley 236 source measure unit. Next, the foot-pad epidermis of a mouse was measured for UV transmission by placing it on a quartz coverslip and exposure to the UV beam. The vehicle-control group was treated with the alcohol and glycerol solution only. Another control group consisted of a commercially-available SPF100 preparation sunscreen in form of a cream, which was applied similar to the vehicle-control. The data for the GSK205 and sunscreen was normalized to this control data.

[3] = tested on: IL-1β; assay: IL-1β secretion by UVB-exposed 1° MK (ELISA); format: cell-based, mouse; conditions: 5 μM GSK205
Procedure: Before UV irradiation, culture media was replaced with PBS. The cells were then irradiated at a dose of 50 mJ/cm^2 with UVB. 24 hours later, supernatants were assayed using IL-1β ELISA (R&D Systems, Minneapolis, Minn.).

[4] = target: T2, TRPV4 (Mus musculus, UniProt Q9EPK8); assay: GSK101-evoked Ca++ transient in 1° MK; format: cell-based; conditions: 5 nM GSK101; GSK205 20 μM
T2 construct: endogenous in cells; host or cells: primary mouse epidermal keratinocytes (1° MK), wild type
Procedure: Ca++ imaging of mouse 1° MK in response to chemical activation of TRPV4 was conducted after loading with 2 μM fura2-AM, following a ratiometric Ca2+ imaging protocol with 340/380 nm […] for dual excitation. Ratios of emissions were acquired at 0.5 Hz. ΔR/R0 was determined as the fraction of the increase of a given ratio over baseline ratio, divided by baseline ratio. For stimulation of cells with UVB, where fura-2 was not suitable because of the proximity of stimulation with 340/380 nm and 295 nm, 2 μM fluo4-AM was used instead. Ca++ imaging was carried out at 488 nm excitation, acquisition of emissions at 0.5 Hz, expressed as ΔF/F0. In the custom-built UV optical system, UV LEDs were capped with a ball lens, a transparent optical window in the shape of a hemispherical lens (FIG. 2B). The LED output optical beam focused at 15-20 mm from the lens, with a spot diameter of approximately 1.5-2.0 mm (FIG. 2C). […] The thermal equilibration stage was set for physiological temperature. We confirmed the non-thermal nature of UVB stimulation using the customized 295 nm LED device in a dedicated experiment (FIG. 2D), thus confirming the specific modality of stimulation as UVB.

T2 sequence (Q9EPK8 whole entry): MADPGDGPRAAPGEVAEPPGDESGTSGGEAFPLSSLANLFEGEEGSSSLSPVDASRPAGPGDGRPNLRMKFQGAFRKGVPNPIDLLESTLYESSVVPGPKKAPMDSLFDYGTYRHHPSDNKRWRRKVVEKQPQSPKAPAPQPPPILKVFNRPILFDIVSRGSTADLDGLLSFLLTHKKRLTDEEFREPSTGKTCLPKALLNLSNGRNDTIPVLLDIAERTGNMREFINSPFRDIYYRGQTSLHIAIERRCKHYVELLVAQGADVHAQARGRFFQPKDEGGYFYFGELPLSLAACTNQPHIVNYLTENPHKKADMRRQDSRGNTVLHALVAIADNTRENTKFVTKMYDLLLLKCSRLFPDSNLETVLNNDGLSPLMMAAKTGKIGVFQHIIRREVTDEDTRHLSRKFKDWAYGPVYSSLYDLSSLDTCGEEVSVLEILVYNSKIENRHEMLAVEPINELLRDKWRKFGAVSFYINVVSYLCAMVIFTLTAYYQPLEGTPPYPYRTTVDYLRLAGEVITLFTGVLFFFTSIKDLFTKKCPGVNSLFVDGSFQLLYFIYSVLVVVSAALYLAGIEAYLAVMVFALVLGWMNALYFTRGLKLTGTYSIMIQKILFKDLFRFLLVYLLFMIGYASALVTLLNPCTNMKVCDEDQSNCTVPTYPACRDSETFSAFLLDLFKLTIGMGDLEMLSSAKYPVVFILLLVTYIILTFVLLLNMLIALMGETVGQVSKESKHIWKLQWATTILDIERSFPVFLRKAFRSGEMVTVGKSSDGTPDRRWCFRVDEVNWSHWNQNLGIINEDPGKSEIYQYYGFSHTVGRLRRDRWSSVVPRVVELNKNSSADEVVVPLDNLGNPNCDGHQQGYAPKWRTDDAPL

SMILES	Ca2+ transience on TRPV2 stimulation [1]	UVB permeation of paw-pad skin vs. vehicle control [2]	UVB-induced increase in IL-1β secretion [3]	GSK101-evoked Ca++ transient [4]
CN(CCc1ccc(Nc2nc(-c3ccccc3)cs2)cc1)Cc1ccccc1 [Compound 16-8]	not affected	–	–	–
CN(CCc1ccc(Nc2nc(-c3cccnc3)cs2)cc1)Cc1ccccc1 [GSK205]	–	equal UVB permeation; also recorded: absence of a change	completely eliminated; also recorded: prevention of increase in IL-1β secretion	eliminated; also recorded: completely blocked
